{"source": "paper PMC9356076", "about": "“An Integrated Pharmacological Counselling Approach to Guide Decision-Making in the Treatment with CDK4/6 Inhibitors for Metastatic Breast Cancer” (Frontiers in Pharmacology, 2022)", "key": {"[1]": {"conditions": "cited from earlier work"}, "P-glycoprotein (P-gp)": {"system": "P-glycoprotein (P-gp)", "conditions": "background statement, no reference given; cited from earlier work"}, "[2]": {"system": "breast cancer resistance protein (BCRP)", "conditions": "background statement, no reference given; cited from earlier work"}, "[3]": {"system": "HR-positive/HER2-negative MBC patients", "assay": "Adverse drug reactions in treated patients, graded by CTCAE Version 5.0", "format": "in vivo, human", "conditions": "palbociclib 100 mg/day", "source_text": "(§1) Our counselling service was already available for other KI used in oncology as imatinib, sorafenib, regorafenib, sunitinib, lenvatinib, and three PARP inhibitors: olaparib, niraparib, and rucaparib. Written informed consent was obtained for pharmacogenetic and TDM analyses and the publication of the here presented reports. Any potentially identifying information was omitted. Data concerning age, disease, stage, and molecular profiling, treatment regimen and setting, drug dose, adverse drug reactions, and coadministered treatments were retrieved from the electronic medical record upon patients’ reporting by the prescribing medical oncologist. Toxicities were retrospectively collected through clinical records revision and graded according to Common Terminology Criteria for Adverse Events (CTCAE) Version 5.0."}, "[4]": {"assay": "Therapeutic drug monitoring: steady-state plasma concentration in patients by LC-MS/MS", "protocol": "(§2) Plasma was obtained by centrifugation at 2,450 g for 10 min at 4°C of whole blood EDTA tubes and stored at −80°C until analysis. Patients’ samples were analyzed with a newly developed LC-MS/MS method as previously reported ([Posocco et al., 2020]). Drug concentration was usually evaluated at specific time points, which allowed the evaluation of Cmin or Cmax at steady state. […] Last administration (self-reported) and sampling times were also recorded. According to the literature ([Verheijen et al., 2017]), the average exposure of the approved efficacious dose was used as a proxy of target Cmin and will be referred to as “target Cmin” in this article.\n(§3) Descriptive statistics were used to present and analyze the TDM data. The mean population Cmin value reported in the literature for patients treated with the standard dose was used to evaluate the TDM target, and the ±20% intervals were calculated. This interval was based on acceptable variability of analytical data according to incurred sample reanalysis criteria ([FDA, 2018]; [EMA, 2022]). Patients who fell outside this range were considered to be potentially under or overexposed to the drugs."}, "clinical": {"assay": "clinical", "conditions": "human", "protocol": "as §2, §3"}, "[5]": {"system": "HR-positive/HER2-negative MBC patients", "assay": "Patient's clinical outcome of CDKi treatment for metastatic breast cancer", "format": "in vivo, human", "source_text": "as §1"}, "UGT": {"system": "UGT", "conditions": "background statement, no reference given; cited from earlier work"}}}
{"smiles": "CCN1CCN(Cc2ccc(Nc3ncc(F)c(-c4cc(F)c5nc(C)n(C(C)C)c5c4)n3)nc2)CC1", "note": "[abemaciclib]", "values": [{"measurement": "proposed target Cmin", "setting": "[1]; abemaciclib, MONARCH 3 patients, 132 mg/twice day, ref US Food and Drug Administration, 2017b", "result": 0.181, "unit": "µg/mL"}, {"measurement": "substrate of the efflux transporter P-gp", "setting": "P-glycoprotein (P-gp)", "result": "substrates"}, {"measurement": "substrate of / transport by BCRP", "setting": "[2]", "result": "substrates"}]}
{"smiles": "CC(=O)c1c(C)c2cnc(Nc3ccc(N4CCNCC4)cn3)nc2n(C2CCCC2)c1=O", "note": "[palbociclib]", "values": [{"measurement": "neutropenia grade after dose reduction", "setting": "[3]; Case II", "result": "grade 4"}, {"measurement": "neutropenia grade after dose reduction", "setting": "[3]; Case V", "result": "grade 3"}, {"measurement": "Cmin (minimum plasma concentration)", "setting": "[4]; Case I, palbociclib 75 mg/day + fulvestrant, steady state, 24 h after last intake", "result": "27.3 ng/ml (palbociclib 75 mg/day)"}, {"measurement": "Cmin", "setting": "[4]; Case II, after dose reduction to palbociclib 100 mg/day", "result": 0.0623, "unit": "µg/mL"}, {"measurement": "concentration at 24 h", "setting": "[4]; human, plasma, oral, 100 mg/day", "result": 0.0623, "unit": "µg/mL"}, {"measurement": "concentration at 24 h", "setting": "clinical; plasma, oral", "result": "0.049 to 0.073", "unit": "µg/mL"}, {"measurement": "Patient's clinical outcome", "setting": "[5]; Case I, palbociclib 75 mg/day + fulvestrant, II line", "result": "systemic PD"}, {"measurement": "Patient's clinical outcome", "setting": "[5]; Case I, palbociclib 75 mg/day + fulvestrant, II line, listed as Palbociclib", "result": "Palbociclib treatment failure due to disease progression"}]}
{"smiles": "N#Cc1ccc(C(c2ccc(C#N)cc2)n2cncn2)cc1", "note": "[letrozole]", "values": [{"measurement": "proposed Cmin target value", "setting": "[1]; letrozole, dedicated exposure-efficacy studies, ref FDA, 2021a", "result": 0.0856, "unit": "µg/mL"}]}
{"smiles": "CN(C)C(=O)c1cc2cnc(Nc3ccc(N4CCNCC4)cn3)nc2n1C1CCCC1", "note": "[ribociclib]", "values": [{"measurement": "glucuronidation reaction by UGT", "setting": "UGT", "result": "undergo a glucuronidation reaction"}, {"measurement": "reported mean Cmin (target population Cmin)", "setting": "[1]; ribociclib standard dose 600 mg/day, ref FDA, 2021b", "result": 0.732, "unit": "µg/mL"}, {"measurement": "mean steady-state population Cmax", "setting": "[1]; ribociclib", "result": "2,237 ng/ml"}, {"measurement": "concentration at 24 h", "setting": "clinical; in vivo", "result": "0.586 to 0.878", "unit": "µg/mL"}, {"measurement": "substrate of the efflux transporter P-gp", "setting": "P-glycoprotein (P-gp)", "result": "substrate"}, {"measurement": "Patient's clinical outcome", "setting": "[5]; Case III, ribociclib 600 mg/day reduced to 400 mg and then 200 mg, I line", "result": "disease progression"}, {"measurement": "Patient's clinical outcome", "setting": "[5]; Case III, ribociclib 600 mg/day reduced to 400 mg and then 200 mg, I line, listed as Ribociclib", "result": "The dose of ribociclib was reduced after more than 1 year of intermittent treatment due to toxicity. Ribociclib treatment ultimately failed"}, {"measurement": "substrate of / transport by BCRP", "setting": "[2]", "result": "no noticeable transport"}]}
